Test results reported in patent publication US10799552B2, “Methods for treating diabetic neurotherapy” (Massachusetts Eye and Ear Infirmary, priority 2011, dated 2020).
Peptide text beside a SMILES is read from it. * marks the point of attachment. Cbz = O=C(OCc1ccccc1)*; CH2F = FC*

Tested on: optic nerve axons of retinal ganglion cells
Assay: Axon regeneration after optic nerve crush injury (βIII-tubulin staining of optic nerve sections)
Assay type: in vivo, mouse
Conditions: intravitreal, ZVAD 300 μM and/or Nec-1 4 mM; 14 days after optic nerve injury; FIGS. 3B-3E
Description: Intravitreal injections were performed as follows. Briefly, the tip of a 33 gauge needle (Hamilton, Reno, Nev.) was carefully inserted through the sclera into the intravitreal space to reduce intraocular pressure. Then, the needle was extracted, loaded with compounds and tangentially reinserted through the sclera into the intravitreal space, inducing a self-sealing wound tunnel. After injection, the absence of choroidal bleeding was confirmed. At specified times after injury, mice were sacrificed with an overdose of sodium pentobarbital, and eyes were enucleated.
To investigate the efficacy of necrosis inhibitor and pan-caspase inhibitor in promoting axon regeneration, eight-weeks-old mice were subjected to optic nerve crush surgery as previously described. […]
Axon regeneration was assessed by obtaining longitudinal sections of the optic nerve and counting the number of axons at pre-specified distances from the injury site. […] Axons were counted manually in at least eight longitudinal sections per case at pre-specified distances from the injury site. The number of regenerating axons at various di stances are determined as described previously (Leon et al., (2000) J NEUROSCI 20: 4615-4626). […]

Row | Compound | axon regeneration (axon staining beyond injury site)
1 | COC(=O)CC(NC(=O)C(C)NC(=O)C(NC(=O)OCc1ccccc1)C(C)C)C(=O)CF (stereo not drawn) [ZVAD, Benzyloxycarbonyl-Val-Ala-Asp(OMe)-fluoromethylketone] (Cbz-Val-Ala-Asp(OMe)-CH2F; configuration not given here) | minimal effects on axon regeneration
2 | CN1C(=O)NC(Cc2c[nH]c3c(Cl)cccc23)C1=O (centres unmarked) [Nec-1] | minimal effects on axon regeneration
